Data taken from US5565437A, “2',3'-dideoxy-2'-fluoro-purine nucleosides and methods for using same” (priority 1992, dated 1996).

Columns and labels:
[1] = Acid-catalyzed decomposition / stability in acid, 37° C., HPLC; format: physicochemical
Experimental: In order to study acid-catalyzed decomposition of the subject compounds, a pH 1 buffer was prepared by dissolving 0.746 g KCl and 26.8 g 1.0N HCl in sufficient distilled water to give 200 ml total volume. Ten ml of buffer, prewarmed to 37° C., was added to 102 micrograms of ddA (Compound I), and 93 micrograms of each compounds II or III, 2',3'-dideoxy-2'-alpha-flourodeminine or 2'-beta-flouro-2',3'-dideoxyadenosine. The samples were shaken and maintained at 37° C. Aliquots were taken at timed intervals and neutralized immediately with 0.1 NaOH and chilled on ice. The amounts of ddA and the fluorinated analogs were determined by HPLC analysis using a 4.6×250 mm […] Ultrasphere ODS column protected by a guard column packed with 37-50 micron Vydac 201SC. Elution was with 12% acetonitrile in 0.01 M pH 6.8 phosphate buffer at 1.0 ml/minute. The integrator peak areas were plotted as a function of time, and the data was fitted to a first order decomposition curve by a computer program (MLAB).

[2] = test system: HIV; conditions: background statement; cited from earlier work
[3] = relative to adenosine; cited from earlier work
[4] = test system: human immunodeficiency virus (HIV); conditions: background statement; cited from earlier work
[5] = test system: human immunodeficiency virus (HIV; HTLV-IIIB virus) in ATH8 cells; assay: HIV cytopathic assay using ATH8 cells (protection against the cytopathic effect of HIV); format: cell-based
Experimental: To test the cytopathic effect of the compounds of the present invention, HIV cytopathic assay was performed using ATH8 cells as described by Mitsuya et al., Proc. Nat. Acad. Sci. USA, 83, 1911 (1986). In brief, 2×10^5 ATH8 cells were preexposed to polybrene, exposed to HTLV-IIIB virus (2000 virus particles/cell) for 45 minutes after treatment with polybrene, resuspended in 1 ml of culture medium containing Interleukin 2 in the presence or absence of various concentrations of compounds, and incubated in culture tubes at 37° C. in 5% CO2 /95% air humidified atmosphere. Control cells were treated similarly but were not exposed to the virus. At various times on days 5 to 7 of culture, the total viable cells were counted in a hemocytometer by the trypan blue dye exclusion method. In the HIV cytopathic effect assay using ATH8 cells, 0.5 to 5 virus particles per cell represent the minimum cytopathic dose of the virus.

[6] = test system: adenosine deaminase; assay: Metabolism by adenosine deaminase in the body; format: in vitro ADME

Nc1ncnc2c1ncn2[C@@H]1O[C@H](CO)C[C@H]1F [Compound II, 2',3'-dideoxy-2'-alpha-flouroadenosine]
stability to acid-catalyzed decomposition ([1]; pH 2, 37° C. (FIG. 2)): stable to acid-catalyzed decomposition

Cc1ccc(C(=O)Nc2ccc(S(=O)(=O)O)c3cc(S(=O)(=O)O)cc(S(=O)(=O)O)c23)cc1NC(=O)c1cccc(NC(=O)Nc2cccc(C(=O)Nc3cc(C(=O)Nc4ccc(S(=O)(=O)O)c5cc(S(=O)(=O)O)cc(S(=O)(=O)O)c45)ccc3C)c2)c1 [suramin]
HIV replication in the presence of compound [2]: considerably slower

Nc1ncnc2c1ncn2[C@H]1CC[C@@H](CO)O1 [Compound I, 2',3'dideoxyadenosine]
half-life ([1]; ph 1 kcl/hcl buffer, pH 1.0, 37° C. (FIG. 3)): 35 s | rate of acid-catalyzed hydrolysis of the glycosidic bond, times faster than adenosine [3]: 40,000 times | in vitro activity against HIV [4]: potent in vitro activity

antimoniotungstate
HIV replication in the presence of compound [2]: considerably slower

Nc1ncnc2c1ncn2[C@@H]1O[C@H](CO)C[C@@H]1F [Compound III, 2',3'-dideoxy-2'-beta-fluoroadenosine]
durability of the antiviral effect, compared with the parent compound I ([5]; compared with compound I (ddA)): as durable as that of the parent compound | activity and potency in protecting ATH8 cells against the cytopathic effect of HIV, compared with ddA ([5]; substantial viral excess, FIG. 1): approximately as active and potent as ddA | change after exposure to acidic conditions ([1]; 24 hour exposure, pH 1 (FIG. 3)): completely unchanged | metabolism by adenosine deaminase [6]: metabolism of 2',3'-dideoxy-2'-beta-fluoroadenosine to compound IV
